Experiment [1] deals with AMPK. The experiment is described as follows: In vitro kinase activity (Millipore KinaseProfiler): AMPK. It counts as biochemical. To be noted: no head or unit printed. How it is done:
(§1) All cells were grown in DMEM+10% FCS. ACHN and ACHN shVHL were a kind gift from George V. Thomas (UCLA). HIF overexpressing clones were described previously. Transfection of RNA oligos were performed with DnarmaFECT Reagent 1 (Dharmcon), according to manufacturer's directions. ON-TARGETplus SMART pools against HIF-1β/ARNT were purchased from Dharmacon. Glut1 was detected with anti-GLUT1 antibody from NeoMarkers/LabVision/Fisher. Pyruvate/lactate levels and hexokinase activity were both measured by fluorometric assay (BioVision and Sigma-Aldrich, respectively). ATP levels were measured by bioluminescence assay (ATP Determination Kit from Molecular Probes/Invitrogen). In vitro kinase activities were performed by Millipore KinaseProfiler. Affi-Gel 10 (BioRad) activated affinity media was coupled to analogs to generate immobilized affinity linkers.
(§2) We next wanted to investigate the differential glucose uptake between RCCs with and without VHL treated with compound 47 that subsequently lead to the selective death of VHL-deficient cells. We first examined the message levels of the two main glucose transporters, GLUT1 and GLUT2 by quantitative real-time PCR. GLUT1 is an inducible, high-affinity glucose transporter, while GLUT2 is the glucose transporter responsible for basal glucose uptake. […] Cells deficient in VHL had very low levels of GLUT2 that could barely be detected (FIG. 3J). […]

Experiment [2] has as its system ACHN shVHL. The experiment is described as follows: Clonogenic survival, ACHN with shRNA to VHL. The class given is cell-based, human. To be noted: FIG. 2E.
Experiment [3] concerns hexokinase. Nature of the experiment: Hexokinase activity in whole cell lysates, RCC4/VHL. It counts as cell-based, human. To be noted: 5 μM. As to the method:
as §1
We then examined whether this decrease in glycolysis in response to compound 47 was due to a decrease in glucose uptake or whether compound 47 inhibited a particular glycolytic enzyme. To test this, we measured glucose uptake using 2-deoxy-D-[^3H] glucose, a non-hydrolyzable, radioactive glucose analog, following two days of treatment with compound 47. […] RCC4/VHL cells had lower baseline levels of glucose uptake compared to RCC4 cells and were unaffected by treatment with compound 47. […]

The target of experiment [4] is T1, MSK1 (Homo sapiens, UniProt O75582).
T1 construct: purchased Millipore (KinaseProfiler service)
Nature of the experiment: In vitro kinase activity (Millipore KinaseProfiler): MSK1. Particulars: no head or unit printed. The class given is biochemical. As to the method: as §1, §2

Experiment [5] relates to 786-O. The experiment is described as follows: 3H-2-deoxyglucose uptake, 786-O. To be noted: 5 μM, FIG. 8B. It counts as cell-based, human. How it is done:
One hundred thousand cells were plated into 6-well plates. The following day, the cells were treated with vehicle or drug and incubated for the indicated time. Cells were washed twice in phosphate buffered saline and low glucose media was added for 30 minutes. Cells were then incubated with 0.5 microCi of tritiated-2-deoxyglucose and incubated for an hour at 37° C. Cells were washed twice in PBS and then lysed in 0.2 N NaOH and 0.2% SDS. Lysates were transferred to scintillation tubes with scintillation fluid and quantified by scintillation counter.
One hundred thousand cells were plated per well in a six-well plate. The next day, cells were treated with the indicated concentration of drug and incubated for the indicated time. Cells were then washed twice with phosphate-buffered saline, incubated in low-glucose medium for 30 minutes, and ^3H-2-deoxyglucose (0.5 μCi) was added in 1 ml of glucose-free media for an additional hour. Cells were washed twice in PBS and lysed (0.2 N NaOH and 0.2% sodium dodecyl sulfate). Glucose uptake was quantified with a scintillation counter.

The subject of experiment [6] is p53. Nature of the experiment: DNA damage response (Western blot p53, phospho-p53). The class given is cell-based, human. To be noted: RCC4 and RCC4/VHL, 1.25, 2.5 and 5 μM. As to the method:
(A) Clonogenic survival of RCC4 and RCC4/VHL treated with […] (5 μM)(*p<0.05). All error bars represent the standard error of the mean. […] RCC4 and RCC4/VHL cells were treated with increasing concentrations of compound 47 (1.25, 2.5 and 5 μM), a negative control (DMSO) and a positive control (4-(pyridin-4-yl)-N-(m-tolyl)thiazol-2-amine). Cells were lysed and probed for LC3, a marker of autophagy, or α-tubulin (loading control). […] RCC4 and RCC4/VHL cells were treated with vehicle, increasing concentrations of compound 47, and camptothecin. Cells were stained with DAPI and nuclear condensation was examined by fluorescence microscopy. (D) RCC4 cells were treated with compound 47 (5 μM) for the indicated time and stained with Annexin V and propidium iodide and subjected to FACS analysis. […] RCC4 and RCC4/VHL cells were subjected to increasing concentrations of compound 47 (1.25, 2.5, and 5 μM), a negative control (DMSO), and a positive control (doxorubicin). Cells were lysed and subjected to Western blot with the indicated antibodies.
However, RCC cells without VHL undergo a necrotic cell death in response to compound 47 as measured by the ability of the cells to exclude trypan blue, an indicator of cell membrane integrity.

Experiment [7] concerns the target T2, Syk (Homo sapiens, UniProt P43405).
T2 construct: purchased Millipore (KinaseProfiler service)
Nature of the experiment: In vitro kinase activity (Millipore KinaseProfiler): Syk. The class given is biochemical. Particulars: no head or unit printed. As to the method:
as §1, §2

The results in this text go back to patent publication US20120225862A1, “HETEROARYL BENZAMIDES, COMPOSITIONS AND METHODS OF USE” (AUCKLAND UNIVSERVICES LIMITED, priority 2009, published 2012).

T1 sequence (O75582 whole entry, species assumed): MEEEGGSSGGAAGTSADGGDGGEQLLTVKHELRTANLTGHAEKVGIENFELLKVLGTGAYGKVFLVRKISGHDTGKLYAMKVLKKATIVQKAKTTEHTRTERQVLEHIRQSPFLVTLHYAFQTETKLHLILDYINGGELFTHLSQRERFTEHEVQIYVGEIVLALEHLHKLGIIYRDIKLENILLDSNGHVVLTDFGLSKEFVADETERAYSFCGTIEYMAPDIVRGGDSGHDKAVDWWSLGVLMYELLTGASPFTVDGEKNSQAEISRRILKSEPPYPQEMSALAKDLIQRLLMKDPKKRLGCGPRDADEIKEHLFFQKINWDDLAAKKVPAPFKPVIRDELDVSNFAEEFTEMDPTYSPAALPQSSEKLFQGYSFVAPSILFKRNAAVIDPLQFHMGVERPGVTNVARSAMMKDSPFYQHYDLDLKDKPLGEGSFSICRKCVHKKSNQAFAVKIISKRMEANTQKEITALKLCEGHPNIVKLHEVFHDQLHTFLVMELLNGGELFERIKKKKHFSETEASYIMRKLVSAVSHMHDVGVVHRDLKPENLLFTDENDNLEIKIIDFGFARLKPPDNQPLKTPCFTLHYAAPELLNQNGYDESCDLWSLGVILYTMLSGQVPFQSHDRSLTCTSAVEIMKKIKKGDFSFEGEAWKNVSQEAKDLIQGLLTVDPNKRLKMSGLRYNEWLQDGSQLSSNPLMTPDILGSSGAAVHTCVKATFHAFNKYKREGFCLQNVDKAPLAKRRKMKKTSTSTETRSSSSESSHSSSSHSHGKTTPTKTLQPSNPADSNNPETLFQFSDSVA

As for `CC(C)(C)c1ccc(S(=O)(=O)NCc2ccc(C(=O)Nc3cccnc3)cc2)cc1` [Example 38, 4-((4-tert-Butylphenylsulfonamido)methyl)-N-(pyridin-3-yl)benzamide], the AMPK kinase activity in experiment [1] was 92%. In addition, the “sensitivity of ACHN cells with VHL silenced by shRNA (clonogenic survival)” value in experiment [2] is on record as “sensitive”. For the same molecule, in experiment [3], the “hexokinase activity in RCC4/VHL” value is given as “unchanged”. Further, the MSK1 kinase activity in experiment [4] worked out at 107. In addition, in experiment [5], the “glucose uptake in 786-O cells” value is “impaired glucose uptake”. In experiment [6], the “total p53 or phospho-p53 levels (DNA damage response)” value is reported as “did not increase”. This molecule also came in with a Syk kinase activity in experiment [7] of 94.
